Assay results: US20100168225A1, “Small-Molecule Hepatitis C Virus (HCV) NS3/4A Serine Protease Inhibitors” (priority 2007, published 2010)

target: SARS 3CL^PRO (Severe acute respiratory syndrome coronavirus, UniProt P0C6X7); experiment: biochemical; conditions: ID50

SMILES	IC50 [µM]
O=c1ccc2ccc(O)c(O)c2o1 [Compound C10, Daphnetin]	168
O=c1oc2cc(O)c(O)cc2cc1O [Compound C11, 3-hydroxyesculetin]	97
CC(=O)Nc1cc2cc(OC(C)=O)c(OC(C)=O)cc2oc1=O [Compound C12, 3-aminoacyl-6,7-diacetoxycoumarin]	183
O=c1oc2c(O)c(O)ccc2cc1O [Compound C21, 3,7,8-trihydroxycoumarin]	100
CC(=O)Nc1cc2ccc(OC(C)=O)c(OC(C)=O)c2oc1=O [Compound C22, 3-aminoacyl-7,8-diacetoxycoumarin]	184

same assay, conditions: ID50 (μM) (by kinetic assay) SARS 3CL^PRO

SMILES	IC50 [µM]
O=c1oc2cc(O)c(O)cc2cc1O [Compound C11, 3-hydroxyesculetin]	96.6
